We go through 11 molecules from PMC3423582 (Bioorganic & medicinal chemistry letters, 2012).

Assay [1] concerns seven cell lines (MCF7, HT-1080, U2OS, RKO, H1299, BJ-TERT, BJ-TERT/LT/ST/RAS^V12). As to the kind of experiment: Lethality across the panel of seven cell lines. The class given is cell-based. The conditions noted are these: summary of Table 1.
The subject of assay [2] is BJ-TERT/LT/ST/RAS^V12. As to the kind of experiment: Cell death by photograph after 24 hours. The class given is cell-based. The following applies: compound 27 30 µM, staurosporine 1 µM.
Assay [3] has as its system BJ-TERT. Put plainly: Cell death by photograph after 24 hours. The class given is cell-based. The following applies: compound 27 30 µM, staurosporine 1 µM.
Assay [4] concerns BJ-TERT. The following applies: read-out: EC50 (BJ-TERT); cited from earlier work.
Assay [5] deals with BJ-TERT/LT/ST/RAS^V12. The following applies: read-out: EC50 (BJ-TERT/LT/ST/RAS^V12); cited from earlier work.
Assay [6] has as its system BJ-TERT/LT/ST/RAS^V12. As to the kind of experiment: Lethality. The class given is cell-based. The conditions noted are these: ratio of LC50 values.
The test system of assay [7] is BJ-TERT/LT/ST/RAS^V12. Put plainly: Kinetic analysis of induced cell death. The following applies: treated at the LC90 (30 µM). The class given is cell-based.
For assay [8], the system named is caspase 3/7 in BJ-TERT/LT/ST/RAS^V12 cells. As to the kind of experiment: Caspase 3/7 activation. It is filed as cell-based. The conditions noted are these: 28 hours, two-fold 14-point dilution series, Apo-ONE.
Assay [9] relates to caspase 3/7 in BJ-TERT cells. Put plainly: Caspase 3/7 activation. The class given is cell-based. The following applies: 28 hours, two-fold 14-point dilution series, Apo-ONE.
Another assay concerns HT1080 cells. As to the kind of experiment: Modulatory profiling: suppression of lethality by biologically active compounds. It is filed as cell-based, human. The conditions noted are these: z-VAD-fmk (45 µM) or Boc-D-fmk (50 µM).

Molecules are shown by their SMILES. “Also recorded” adds a separate entry of the source.

In the case of `CC(C)(C)OC(=O)N1CCc2c(n(C(=O)OC(C)(C)C)c3ccccc23)C1CC=O` (centres unmarked) [Compound 13], the “Lethality across the seven cell lines (in words)” value in assay [1] is reported as “showed lethality in at least five cell lines”.

`CN1C(=O)C(Cc2nccc3c4ccccc4n(C)c23)C(=O)N(C)C1=O` [Compound 8]: the “Lethality across the seven cell lines (in words)” value in [1] is recorded as “slightly more active”.

Regarding `CN[C@@H]1C[C@H]2O[C@@](C)([C@@H]1OC)n1c3ccccc3c3c4c(c5c6ccccc6n2c5c31)C(=O)NC4` [Staurosporine, reference compound], the “Cell death in BJ-TERT/LT/ST/RAS^V12 cells” value in the assay with BJ-TERT/LT/ST/RAS^V12 [2] is “induced cell death”. The “Cell death in BJ-TERT cells” value in the assay on BJ-TERT [3] is reported as “induced cell death”.

With `COC(=O)c1ccc(C2c3[nH]c4ccccc4c3CC(C(=O)OC)N2C(=O)CCl)cc1` (centres unmarked) [RSL3], the EC50 with BJ-TERT [4] was 2.8 µM; with BJ-TERT/LT/ST/RAS^V12 [5] it was 0.365 µM.

Consider `CN1C(=O)C(C2NC=Cc3c2[nH]c2ccccc32)C(=O)N(C)C1=O` (centres unmarked) [Compound 2a, 5-(2,9-dihydro-1H-pyrido[3,4-b]indol-1-yl)-1,3-dimethylpyrimidine-2,4,6(1H,3H,5H)-trione], for which the “Enhancement of lethality compared with compound 1 in BJ-TERT/LT/ST/RAS^V12” value in the assay on BJ-TERT/LT/ST/RAS^V12 [6] is reported as “two-fold more lethal”. Besides, the “Lethality across the seven cell lines (in words)” value in [1] is on record as “showed lethality in at least five cell lines”.

For the molecule `COC(OC)C1c2[nH]c3ccccc3c2CCN1C(=O)OCc1ccccc1` (centres unmarked) [Compound 34], the “Lethality across the seven cell lines (in words)” value in assay [1] was “showed lethality in at least five cell lines”.

Turning to `CCOC(=O)C1c2[nH]c3ccccc3c2CCN1C(=O)OCc1ccccc1` (centres unmarked) [Compound 29], the “Lethality across the seven cell lines (in words)” value in assay [1] was “showed lethality in at least five cell lines”.

As to `CC(CC1C(=O)N(C)C(=O)N(C)C1=O)C1c2c(c3ccccc3n2C(=O)OC(C)(C)C)CCN1C(=O)OC(C)(C)C` (centres unmarked) [Compound 21], the “Lethality across the seven cell lines (in words)” value in assay [1] was “modest to good potency in six cell lines; also recorded: showed lethality in at least five cell lines”.

Turning to `CCOc1ccccc1-n1c(C(C)N2CCN(C(=O)COc3ccc(Cl)cc3)CC2)nc2ccccc2c1=O` (centres unmarked) [erastin], the EC50 in the assay on BJ-TERT [4] is 23.7 µM; in the assay on BJ-TERT/LT/ST/RAS^V12 [5], 3.9 µM.

In the case of `CCOC(=O)C1c2c(c3ccccc3n2C)CCN1C(=O)OC` (centres unmarked) [Compound 27], the “Enhancement of lethality compared with compound 1 in BJ-TERT/LT/ST/RAS^V12” value in the assay with BJ-TERT/LT/ST/RAS^V12 [6] is on record as “four fold enhancement”. Also, in the assay on BJ-TERT/LT/ST/RAS^V12 [7], the “Time at which compound started to kill cells” value was at most 12 h and the “Time to complete cell death” value was at most 24 h. Besides, the “Cell death in BJ-TERT/LT/ST/RAS^V12 cells” value in the assay on BJ-TERT/LT/ST/RAS^V12 [2] is reported as “observed only in BJ-TERT/LT/ST/RAS^V12 cells”. The “Cell death in BJ-TERT cells” value with BJ-TERT [3] is “not BJ-TERT”. Also, the “Caspase 3/7 activation in BJ-TERT/LT/ST/RAS^V12” value in assay [8] is listed as “failed to induced caspase 3/7 activation”. Also, the “Caspase 3/7 activation in BJ-TERT” value in [9] is on record as “does not induce caspase activation”. In the assay with HT1080 cells, the “Effect of caspase inhibitors on the compound's lethality” value is listed as “not inhibited”. Besides, the “Lethality across the seven cell lines (in words)” value in assay [1] was “showed lethality in at least five cell lines; also recorded: effective in inducing cell death in six out of seven cell lines”.

As for `CC(C=O)C1c2c(c3ccccc3n2C(=O)OC(C)(C)C)CCN1C(=O)OC(C)(C)C` (centres unmarked) [Compound 20], the “Lethality across the seven cell lines (in words)” value in assay [1] is recorded as “showed lethality in at least five cell lines”.
